Experimental data: ChEMBL document CHEMBL4420071, “Method for treating skin with retinoids and retinoid boosters” (2013)

Columns and labels:
[1] = species: Homo sapiens; experiment: Inhibition of transglutaminase in human keratinocytes in presence of retinal relative to retinal alone; assay type: cell-based; conditions: concentration not given here
[2] = target: T1, Diacylglycerol O-acyltransferase 1 (Bos taurus) (UniProt Q8MK44); conditions: at 100 µM;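 note: ARAT activity in bovine RPE microsomes with retinol as substrate and dilauroyl phosphatidylcholine present, 5 min incubation, HPLC readout, inhibition expressed versus control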
T1 sequence (whole entry): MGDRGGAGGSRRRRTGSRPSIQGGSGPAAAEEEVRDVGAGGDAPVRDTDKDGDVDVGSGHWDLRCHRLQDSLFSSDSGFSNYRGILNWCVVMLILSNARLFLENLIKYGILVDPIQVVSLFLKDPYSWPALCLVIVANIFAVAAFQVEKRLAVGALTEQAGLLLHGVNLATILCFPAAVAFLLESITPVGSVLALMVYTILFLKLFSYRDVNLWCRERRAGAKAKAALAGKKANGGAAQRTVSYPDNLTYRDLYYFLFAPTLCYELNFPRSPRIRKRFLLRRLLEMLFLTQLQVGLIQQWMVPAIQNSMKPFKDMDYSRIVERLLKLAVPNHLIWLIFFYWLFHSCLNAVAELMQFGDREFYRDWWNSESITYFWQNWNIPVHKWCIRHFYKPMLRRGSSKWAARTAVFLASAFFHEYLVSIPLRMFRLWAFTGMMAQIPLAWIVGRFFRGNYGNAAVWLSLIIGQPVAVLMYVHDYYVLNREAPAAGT
Description: Inhibition of ARAT in bovine RPE microsomes at 100 uM using retinol substrate in presence of dilauroyl-phosphatidyl choline incubated for 5 mins by HPLC analysis relative to control

[3] = target: T2, Lecithin retinol acyltransferase (Bos taurus) (UniProt Q9BGL2); conditions: at 100 µM;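 note: bovine retinal pigment epithelium microsomes given retinol plus palmitoyl-CoA, 5 min reaction, ester formation read by HPLC, inhibition expressed versus untreated control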
T2 sequence (whole entry): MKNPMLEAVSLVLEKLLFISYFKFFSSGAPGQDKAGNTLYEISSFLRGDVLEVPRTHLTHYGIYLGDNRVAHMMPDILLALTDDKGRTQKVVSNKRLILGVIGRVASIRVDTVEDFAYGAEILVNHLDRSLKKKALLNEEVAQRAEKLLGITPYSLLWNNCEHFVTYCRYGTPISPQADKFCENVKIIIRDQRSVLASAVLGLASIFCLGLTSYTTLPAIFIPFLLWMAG
Description: Inhibition of LRAT in bovine RPE microsomes at 100 uM using retinol substrate in presence of Palmitoyl-CoA incubated for 5 mins by HPLC analysis relative to control

[4] = species: Homo sapiens; experiment: Inhibition of transglutaminase in human keratinocytes assessed as mean transglutaminase activity level at 3.3 10^-6M in presence of 10 uM retinal relative to retinal alone; assay type: cell-based; set-up: scale not given: the % may be the effect or the level left
[5] = species: Homo sapiens; experiment: Inhibition of transglutaminase in human keratinocytes assessed as mean transglutaminase activity level at 8.2 10^-8M in presence of 10 uM retinal relative to retinal alone; assay type: cell-based; set-up: scale not given: the % may be the effect or the level left
[6] = species: Homo sapiens; experiment: Inhibition of transglutaminase in human keratinocytes assessed as mean transglutaminase activity level at 1.1 10^-6M in presence of 10 uM retinal relative to retinal alone; assay type: cell-based; set-up: scale not given: the % may be the effect or the level left
[7] = species: Homo sapiens; experiment: Inhibition of transglutaminase in human keratinocytes assessed as mean transglutaminase activity level at 4.1 10^-8M in presence of 10 uM retinal relative to retinal alone; assay type: cell-based; set-up: scale not given: the % may be the effect or the level left
[8] = species: Homo sapiens; experiment: Inhibition of transglutaminase in human keratinocytes assessed as mean transglutaminase activity level at 1.65 10^-9M in presence of 10 uM retinal relative to retinal alone; assay type: cell-based; set-up: scale not given: the % may be the effect or the level left
[9] = species: Homo sapiens; experiment: Inhibition of transglutaminase in human keratinocytes assessed as mean transglutaminase activity level at 1 10^-5M in presence of 10 uM retinal relative to retinal alone; assay type: cell-based; set-up: scale not given: the % may be the effect or the level left
[10] = species: Homo sapiens; experiment: Inhibition of transglutaminase in human keratinocytes assessed as mean transglutaminase activity level at 1.23 10^-7M in presence of 10 uM retinal relative to retinal alone; assay type: cell-based; set-up: scale not given: the % may be the effect or the level left
[11] = species: Homo sapiens; experiment: Inhibition of transglutaminase in human keratinocytes assessed as mean transglutaminase activity level at 3.73 10^-7M in presence of 10 uM retinal relative to retinal alone; assay type: cell-based; set-up: scale not given: the % may be the effect or the level left
[12] = species: Rattus norvegicus; experiment: Activation of retinol dehydrogenase in Sprague-Dawley rat liver microsomes assessed as increase in enzyme activity at 100 uM using all-trans retinol and NADP by HPLC analysis relative to control
[13] = species: Homo sapiens; experiment: Inhibition of transglutaminase in human keratinocytes assessed as mean transglutaminase activity level at 3 10^-5M in presence of 10 uM retinal relative to retinal alone; assay type: cell-based; set-up: scale not given: the % may be the effect or the level left
[14] = species: Homo sapiens; experiment: Inhibition of transglutaminase in human keratinocytes assessed as mean transglutaminase activity level at 3.8 10^-4M in presence of 10 uM retinal relative to retinal alone; assay type: cell-based; set-up: scale not given: the % may be the effect or the level left
[15] = species: Homo sapiens
Description: Inhibition of transglutaminase in human keratinocytes in presence of 10 uM retinal relative to retinal alone

[16] = species: Homo sapiens; experiment: Inhibition of transglutaminase in human keratinocytes assessed as mean transglutaminase activity level at 6.9 10^-9M in presence of 10 uM retinal relative to retinal alone; assay type: cell-based; set-up: scale not given: the % may be the effect or the level left
[17] = species: Homo sapiens; experiment: Inhibition of transglutaminase in human keratinocytes assessed as mean transglutaminase activity level at 3.3123 10^-4M in presence of 10 uM retinal relative to retinal alone; assay type: cell-based; set-up: scale not given: the % may be the effect or the level left
[18] = species: Homo sapiens; experiment: Inhibition of transglutaminase in human keratinocytes assessed as mean transglutaminase activity level at 1.0 10^-9M in presence of 10 uM retinal relative to retinal alone; assay type: cell-based; set-up: scale not given: the % may be the effect or the level left
[19] = species: Homo sapiens; experiment: Inhibition of transglutaminase in human keratinocytes assessed as mean transglutaminase activity level at 6.26 10^-8M in presence of 10 uM retinal relative to retinal alone; assay type: cell-based; set-up: scale not given: the % may be the effect or the level left
[20] = species: Homo sapiens; experiment: Inhibition of transglutaminase in human keratinocytes assessed as mean transglutaminase activity level at 1.25 10^-8M in presence of 10 uM retinal relative to retinal alone; assay type: cell-based; set-up: scale not given: the % may be the effect or the level left
[21] = species: Homo sapiens; experiment: Inhibition of transglutaminase in human keratinocytes assessed as mean transglutaminase activity level at 1.41 10^-6M in presence of 10 uM retinal relative to retinal alone; assay type: cell-based; set-up: scale not given: the % may be the effect or the level left
[22] = species: Homo sapiens; experiment: Inhibition of transglutaminase in human keratinocytes assessed as mean transglutaminase activity level at 4.22 10^-5M in presence of 10 uM retinal relative to retinal alone; assay type: cell-based; set-up: scale not given: the % may be the effect or the level left
[23] = species: Homo sapiens; experiment: Inhibition of transglutaminase in human keratinocytes assessed as mean transglutaminase activity level at 1.14 10^-3M in presence of 10 uM retinal relative to retinal alone; assay type: cell-based; set-up: scale not given: the % may be the effect or the level left
[24] = species: Homo sapiens; experiment: Inhibition of transglutaminase in human keratinocytes assessed as mean transglutaminase activity level at 4.69 10^-7M in presence of 10 uM retinal relative to retinal alone; assay type: cell-based; set-up: scale not given: the % may be the effect or the level left
[25] = species: Homo sapiens; experiment: Inhibition of transglutaminase in human keratinocytes assessed as mean transglutaminase activity level at 1.2 10^-8M in presence of 10 uM retinal relative to retinal alone; assay type: cell-based; set-up: scale not given: the % may be the effect or the level left
[26] = species: Homo sapiens; experiment: Inhibition of transglutaminase in human keratinocytes assessed as mean transglutaminase activity level at 6 10^-8M in presence of 10 uM retinal relative to retinal alone; assay type: cell-based; set-up: scale not given: the % may be the effect or the level left
[27] = species: Homo sapiens; experiment: Inhibition of transglutaminase in human keratinocytes assessed as mean transglutaminase activity level at 2.4 10^-9M in presence of 10 uM retinal relative to retinal alone; assay type: cell-based; set-up: scale not given: the % may be the effect or the level left
[28] = species: Homo sapiens; experiment: Inhibition of transglutaminase in human keratinocytes assessed as mean transglutaminase activity level at 4.4 10^-5M in presence of 10 uM retinal relative to retinal alone; assay type: cell-based; set-up: scale not given: the % may be the effect or the level left
[29] = species: Homo sapiens; experiment: Inhibition of transglutaminase in human keratinocytes assessed as mean transglutaminase activity level at 4.89 10^-6M in presence of 10 uM retinal relative to retinal alone; assay type: cell-based; set-up: scale not given: the % may be the effect or the level left
[30] = species: Homo sapiens; experiment: Inhibition of transglutaminase in human keratinocytes assessed as mean transglutaminase activity level at 1.8 10^-7M in presence of 10 uM retinal relative to retinal alone; assay type: cell-based; set-up: scale not given: the % may be the effect or the level left
[31] = species: Homo sapiens; experiment: Inhibition of transglutaminase in human keratinocytes assessed as mean transglutaminase activity level at 5.43 10^-7M in presence of 10 uM retinal relative to retinal alone; assay type: cell-based; set-up: scale not given: the % may be the effect or the level left
[32] = species: Homo sapiens; experiment: Inhibition of transglutaminase in human keratinocytes assessed as mean transglutaminase activity level at 1.47 10^-5M in presence of 10 uM retinal relative to retinal alone; assay type: cell-based; set-up: scale not given: the % may be the effect or the level left
[33] = species: Homo sapiens; experiment: Inhibition of transglutaminase in human keratinocytes assessed as mean transglutaminase activity level at 1.63 10^-6M in presence of 10 uM retinal relative to retinal alone; assay type: cell-based; set-up: scale not given: the % may be the effect or the level left

O=C(NCNC(=O)NC1C(=O)NC(=O)N1CO)NC1C(=O)NC(=O)N1CO (stereo not given)
inhibition [1]: 35%

CCCCCCCCCCCC(=O)NCCO
inhibition [2]: 13%
inhibition [1]: 11%
inhibition [3]: 34%

CCCCCCCC/C=C\CCCCCCCCCCCCCC(=O)N[C@@H](COP(=O)([O-])OCC[N+](C)(C)C)[C@H](O)/C=C/CCCCCCCCCCCCC
Activity [4]: 76.4%
Activity [5]: 115%
Activity [6]: 98.8%
Activity [7]: 74.6%
Activity [8]: 68.4%
Activity [9]: 77.8%
Activity [10]: 70%
Activity [11]: 91.6%
Activity [12]: 26%
Activity [13]: 45%

O=C(Nc1ccc(Cl)cc1)Nc1ccc(Cl)c(Cl)c1
Activity [14]: 3.8%
IC20 [15]: 6.18 ×10⁻⁷ M
Activity [16]: 77.6%
Activity [17]: -3.2%
Activity [18]: 54.4%
Activity [19]: 18.9%
Activity [20]: 100%
Activity [21]: -0.3%
Activity [22]: -11.2%
Activity [23]: 36.3%
Activity [24]: 15.9%

CCCCCCCC/C=C\CCCCCCCC(=O)OC[C@H](COP(=O)([O-])OCC[N+](C)(C)C)OC(=O)CCCCCCCCCCCCCCC
Activity [25]: 159%
Activity [26]: 87.8%
Activity [27]: 85.5%
Activity [28]: 90.9%
Activity [29]: 70.1%
Activity [30]: 75.9%
Activity [31]: 86.7%
Activity [32]: 120%
Activity [12]: 21%
Activity [33]: 98.8%
